We go through 13 molecules from US8993556B2, “Resorcinol derivatives as HSP90 inhibitors” (priority 2009, dated 2015).

Like-named read-outs stand apart in the source and are kept apart here.

The test system of data set [1] is Her2 protein levels in BT474 breast cancer cells. As to the kind of experiment: Her2 Degradation Assay. Format: cell-based. Conditions: Homo sapiens. The procedure: The potencies of the compounds of the present invention were evaluated by measuring the Her2 degradation as a marker for HSP90 inhibition.
HSP90 is a key component of a chaperone machinery that catalyzes the folding and quality control of several proteins. Its inhibition impairs the capacity to fold or stabilize its client proteins, leading to the proteosomal dependent degradation of these unfolded proteins. […] Cellular activity of HSP90 inhibitors was assessed by measuring the induced loss of Her2 protein levels in BT474 breast cancer cells (ATCC #HTB-20). Cellular Her2 levels were measured by immunocytochemistry, and quantified using an ArrayScan vTi instrument (Cellomics Thermo Scientific).
Cellular activity of HSP90 inhibitors was assessed by measuring the induced loss of Her2 protein levels in BT474 breast cancer cells (ATCC #HTB-20). Cellular Her2 levels were measured by immunocytochemistry, and quantified using an ArrayScan vTi instrument (Cellomics Thermo Scientific).
Studies were performed as follows: 5000 cells/well are seeded in 96 well plates (Perkin Elmer) in DMEM/5% FCS and incubated for 48 hours at 37° C., 5% CO2.
Medium is then replaced with fresh medium containing test compounds at the required concentration. Concentration curves are prepared in DMEM/10% FCS from compound stocks in DMSO, and final DMSO concentration is 0.1% (v/v). Duplicate wells for each concentration point are prepared, with a typical highest compound concentration of 30 μM. […] Plates are incubated for 20 minutes at room temperature, then wells are washed in PBS and cells permiabilised by incubating with PBS containing 0.3% Triton X-100 for 15 minutes at room temperature. Non-specific binding sites are blocked by incubating wells for 1 hour in PBS containing 3% (w/v) BSA. Wells are then incubated for 1 hour at room temperature in PBS containing anti Her2 mouse monoclonal (Anti-c-ErbB2/c-Neu, Mouse mAb 3B5, Calbiochem Cat N^o OP15) diluted 1:100 in 1% (w/v) BSA. […] After washing a further 3 times in PBS, cellular Her2 immunoreactivity is assessed using the ArrayScan vTi instrument, with a Zeiss 10× 0.5 N.A. objective, and applying the Cytotoxity.V3 algorithm (Cellomics/Thermo Fisher) with a XF100 filter. At least 10 fields, corresponding to at least 900 cells, are read for each well.
IC50 is the response; IC50 starts at Bottom and goes to Top with a sigmoid shape. In Vitro Cell Proliferation Assay

The subject of data set [2] is A2780 human ovarian cells. Put plainly: In Vitro Cell Proliferation Assay. It counts as cell-based. Here is the method: The cells were incubated at 37° C. and 5% CO2 and after 72 hours the plates were processed using CellTiter-Glo assay (Promega) following the manufacturer's instruction.
CellTiter-Glo is a homogenous method based on the quantification of the ATP present, an indicator of metabolically active cells. ATP is quantified using a system based on luciferase and D-luciferin resulting into light generation. The luminescent signal is proportional to the number of cells present in culture.
Briefly 25 μL/well reagent solution are added to each wells and after 5 minutes shacking microplates are red by a luminometer. The luminescent signal is proportional to the number of cells present in culture.

The target in data set [3] is His-HSP90 N-term domain. As to the kind of experiment: Determination of KD Via Biacore. Format: binding. The note with it: Biacore T100. The procedure:
The evaluation of the binding affinity (KD) of the compounds of formula (I) to the HSP90 protein was done using Biacore T100.
His-HSP90 N-term domain was immobilized by capture of his tag by the Ab previously covalently bound to the chip (CM5) surface.
The compounds were analyzed using the following running buffer: 20 mM Tris/HCl pH 7.6, 150 mM KCl, 5 mM MgCl2, 0.05% P20 and 1% DMSO. The flow rate was 50 ul/min with and association time of 60 seconds.
The cpds were diluted in running buffer from 100× stock solution; the different conc injected were obtained from a sequential dilution in order to have the same DMSO conc. in each sample and avoid any solvent correction.
(Surface plasmon resonance follows binding to a sensor surface in real time, without labels.)

A short description of data set [4]: in vivo. The note with it: Mouse Balb Nu/Nu, single; for clearance / half-life / Vd: 10 mg/kg IV bolus; for clearance: read-out: CL (mL/h/kg) Plasma clearance (converted); for half-life: read-out: T1/2 (h) Terminal half-life (converted); for Vd: read-out: Vdss (mL/kg) Volume of distribution at steady state; for bioavailability: 10 mg/kg oral vs 10 mg/kg IV, read-out: F % Oral bioavailability. Here is the method:
Calibration Standards and Quality Controls were prepared spiking blank mouse plasma with appropriate working solutions.
Sample plasma proteins were precipitated by adding 160 μL of acetonitrile/methanol 90/10 to 20 μL of mouse plasma in a 96 well plate.
After heat sealing and mixing for 3 minutes, the plate was centrifuged for 15 minutes at 4000 rpm.
The supernatant was considered as final extract and injected onto the LC-MS-MS system.
• UPLC system: Waters Acquity BSM • Mobile phase A: 95:5-5 mM Ammonium Formate pH3.5: Acetonitrile • Mobile phase B: 5:95-5 mM Ammonium Formate pH3.5: Acetonitrile • Analytical column: BEH C18 50×2.1 1.7 μm • Elution conditions:
• Total Run Time: 2.0 min. • Flow rate: 0.500 mL/min • Approximate retention time: NMS-03308086: 0.67 min. • Column oven temp: 40° C. • Autosampler type: Waters Acquity SM • Injection volume: 3 μL • Injection mode: Partial Loop with Needle Overfill • Autosampler temperature: 5° C. • MS instrument: Waters TQD • Ionisation: ES+ • Capillary: 1.5 kV • Cone: 70 V • Source Temperature: 150° C. • Desolvation Flow and Temp.: 900 L/h-400° C. • Collision Gas Flow: 0.2 mL/min • Collision Energy: 40 • MRM transitions: NMS-03308086: m/z 579.1>m/z 97.0 • Dwell Time: 0.1 seconds • LLOQ: 5.0 ng/mL • ULOQ: 5000 ng/mL • Software used: Mass Lynx 4.1 SCN627

The mark [5] stands for this setting: BT-474, 8 h, read-out: Her2 Degradation IC50 (μM).
Where [6] appears, read: BT-474, BT474 breast cancer cells, 8 hours, read-out: Her2 Degradation IC50.
Where [7] appears, read: A2780 human ovarian cells, 72 hours, CellTiter-Glo, read-out: A2780 Proliferation IC50.
Setting [8] is: Homo sapiens, A2780, 72 h, read-out: A2780 Proliferation IC50 (μM).

With `CN(C)c1ccc(Oc2cc(O)cc(O)c2-c2cc(C(=O)NC3CCN(C4CCCCC4)CC3)no2)cc1` [N-(1-Cyclohexylpiperidin-4-yl)-5-{2-[4-(dimethylamino)phenoxy]-4,6-dihydroxyphenyl}isoxazole-3-carboxamide], the IC50 in data set [1] (setting [5]) amounted to 0.003 µM.
On to `CN(C)c1ccc(Oc2cc(O)cc(O)c2-c2cc(C(=O)NC3CCN(C4CCC5(CC4)OCCO5)CC3)on2)cc1` [3-{2-[4-(Dimethylamino)phenoxy]-4,6-dihydroxyphenyl}-N-[1-(1,4-dioxaspiro[4.5]dec-8-yl)piperidin-4-yl]isoxazole-5-carboxamide], for which, in data set [1] (setting [6]), the IC50 worked out at 0.003 µM. Also, the IC50 in data set [2] (setting [7]) came to 0.02 µM. This molecule also came in with a Kd in data set [3] of 0.043 nM. Besides, in data set [4], the clearance is 1910 mL/h/kg, the half-life is 7.23 h, the Vd is 9120 mL/kg and the bioavailability stood at 23%.
For the molecule `CCNC(=O)c1cc(-c2c(O)cc(O)cc2Oc2ccc(C#N)cc2)on1` [5-[2-(4-Cyanophenoxy)-4,6-dihydroxyphenyl]-N-ethylisoxazole-3-carboxamide], the IC50 in data set [1] (setting [6]) turned out to be 0.277 µM.
In the case of `CN(C)c1ccc(Oc2cc(O)cc(O)c2-c2cc(C(=O)NC3CCN(C4CCC5(CC4)OCC(C)(C)CO5)CC3)no2)cc1` [5-{2-[4-(Dimethylamino)phenoxy]-4,6-dihydroxyphenyl}-N-[1-(3,3-dimethyl-1,5-dioxaspiro[5.5]undec-9-yl)piperidin-4-yl]isoxazole-3-carboxamide], in data set [1] (setting [6]), the IC50 came to 0.037 µM. Further, in data set [2] (setting [7]), the IC50 stood at 0.035 µM. Also, in data set [3], the Kd is 0.08 nM. Further, in data set [4], the clearance is 1340 mL/h/kg, the half-life was 6.71 h, the Vd worked out at 6000 mL/kg and the bioavailability stood at 19%.
As to `CC(C)N1CCC(NC(=O)c2cc(-c3c(O)cc(O)cc3Oc3ccc([N+](=O)[O-])cc3)on2)CC1` [5-[2,4-Dihydroxy-6-(4-nitrophenoxy)phenyl]-N-[1-(propan-2-yl)piperidin-4-yl]isoxazole-3-carboxamide], in data set [1] (setting [5]), the IC50 turned out to be 0.058 µM.
For the molecule `O=C(NC1CCN(C2CCC(F)(F)CC2)CC1)c1cc(-c2c(O)cc(O)cc2Oc2ccc([N+](=O)[O-])cc2)on1` [N-[1-(4,4-Difluorocyclohexyl)piperidin-4-yl]-5-[2,4-dihydroxy-6-(4-nitrophenoxy)phenyl]isoxazole-3-carboxamide], the IC50 in data set [1] (setting [5]) was determined as 0.027 µM; in data set [2] (setting [8]), 0.05 µM. The molecule further registered a Kd in data set [3] of 0.8 nM.
On the same counts, the results for `CN(C)c1ccc(Oc2cc(O)cc(O)c2-c2cc(C(=O)NC3CCN(CC4CCCCC4)CC3)no2)cc1` [N-[1-(Cyclohexylmethyl)piperidin-4-yl]-5-{2-[4-(dimethylamino)phenoxy]-4,6-dihydroxyphenyl}isoxazole-3-carboxamide] are 0.02 µM, 0.01 µM and 0.188 nM.
With `CN(C)c1ccc(Oc2cc(O)cc(O)c2-c2cc(C(=O)NC3CCN(C4CCC5(CC4)OCCCCO5)CC3)no2)cc1` [5-{2-[4-(Dimethylamino)phenoxy]-4,6-dihydroxyphenyl}-N-[1-(7,12-dioxaspiro[5.6]dodec-3-yl)piperidin-4-yl]isoxazole-3-carboxamide], the IC50 in data set [1] (setting [6]) is 0.045 µM. Moreover, the IC50 in data set [2] (setting [7]) came out at 0.023 µM. Also, in data set [3], the Kd was 0.423 nM. In data set [4], the clearance was 1310 mL/h/kg, the half-life is 6.87 h, the Vd is 5980 mL/kg and the bioavailability was 14%.
As to `CN(C)c1ccc(Oc2cc(O)cc(O)c2-c2cc(C(=O)NC3CCN(C4CCC5(CC4)OCCO5)CC3)no2)cc1`, in data set [4], the clearance was 1760 mL/h/kg, the half-life is 5.46 h, the Vd amounted to 4940 mL/kg and the bioavailability worked out at 36%.
`CCNC(=O)c1cc(-c2c(O)cc(O)cc2Oc2ccc([N+](=O)[O-])cc2)on1` [5-[2,4-Dihydroxy-6-(4-nitrophenoxy)phenyl]-N-ethyl isoxazole-3-carboxamide]: the IC50 in data set [1] (setting [5]) turned out to be 0.059 µM; in data set [2] (setting [8]), 0.07 µM.
Take `CN1CCC(NC(=O)c2cc(-c3c(O)cc(O)cc3Oc3ccc([N+](=O)[O-])cc3)no2)CC1` [3-[2,4-Dihydroxy-6-(4-nitrophenoxy)phenyl]-N-(1-methylpiperidin-4-yl)isoxazole-5-carboxamide]: the IC50 in data set [1] (setting [5]) is 0.022 µM. The IC50 in data set [2] (setting [8]) was found to be 0.02 µM. The molecule also had a Kd in data set [3] of 0.24 nM. In data set [4], the clearance is 3420 mL/h/kg, the half-life was 1.52 h, the Vd was 4470 mL/kg and the bioavailability stood at 7%.
For the molecule `CN(C)c1ccc(Oc2cc(O)cc(O)c2-c2cc(C(=O)NC3CCN(C4CCC(F)(F)CC4)CC3)no2)cc1` [N-[1-(4,4-Difluorocyclohexyl)piperidin-4-yl]-5-{2-[4-(dimethylamino)phenoxy]-4,6-dihydroxyphenyl}isoxazole-3-carboxamide], the results for the IC50 in data set [1] (setting [5]) and in data set [2] (setting [8]) were 0.002 µM and 0.02 µM, respectively. In data set [3], this molecule came in with a dissociation constant (Kd) of 0.057 nM.
As for `CCNC(=O)c1cc(-c2c(O)cc(O)cc2Oc2ccc(Cl)cc2)on1` [5-[2-(4-chlorophenoxy)-4,6-dihydroxyphenyl]-N-ethylisoxazole-3-carboxamide], the IC50 in data set [1] (setting [5]) stood at 0.059 µM.

For orientation: Kd means a measure of binding affinity in units of concentration. Low values mean higher affinity, high ones lower affinity. By bioavailability is commonly meant the share of a dose that reaches the circulation, judged against a reference dose that is usually intravenous.
